Experiment: Inhibition of Bcr-Abl in mouse BA/F3 cells
Compound `OCCn1ncc2c(Nc3ccc(OC(F)(F)F)cc3)ncnc21` [2-(4-(4-(Trifluoromethoxy)phenylamino)-1H-pyrazolo-[3,4-d]pyrimidin-1-yl)ethanol] has an EC50 of 0.25 µM. For `CN(c1ccc(OC(F)(F)F)cc1)c1cc(-c2ccncc2)ncn1` [N-methyl-6-(pyridin-4-yl)-N-(4-(trifluoromethoxy)phenyl)pyrimidin-4-amine], the EC50 was > 10 µM. For `CCn1cc2c(Nc3ccc(OC(F)(F)F)cc3)ncnc2n1` [2-ethyl-N-(4-(trifluoromethoxy)phenyl)-2H-pyrazolo[3,4-d]pyrimidin-4-amine], the EC50 was 1.2 µM. With `FC(F)(F)Oc1ccc(Nc2ccnc(NCCN3CCOCC3)n2)cc1` [N2-(2-morpholinoethyl)-N4-(4-(trifluoromethoxy)phenyl)pyrimidine-2,4-diamine] the EC50 was > 10 µM. With `FC(F)(F)c1ccc(Nc2cc(-c3ccncc3)ncn2)cn1` [6-(pyridin-4-yl)-N-(6-(trifluoromethyl)pyridin-3-yl)pyrimidin-4-amine] the EC50 was 1.24 µM. Work on `FC(F)(F)Oc1ccc(Nc2cc(-c3ccnc4[nH]ccc34)ncn2)cc1` [6-(1H-pyrrolo[2,3-b]pyridin-4-yl)-N-(4-(trifluoromethoxy)phenyl)pyrimidin-4-amine] yielded an EC50 of 0.17 µM. For `NC(=O)Cn1cc2c(Nc3ccc(OC(F)(F)F)cc3)ncnc2n1` [2-(4-(4-(trifluoromethoxy)phenylamino)-2H-pyrazolo[3,4-d]pyrimidin-2-yl)acetamide], the EC50 was 4.34 µM. For `O=C(O)c1cc2c(Nc3ccc(OC(F)(F)F)cc3)ncnc2s1` [4-(4-(trifluoromethoxy)phenylamino)thieno[2,3-d]pyrimidine-6-carboxylic acid], the EC50 was > 10 µM. In the case of `FC(F)(F)Oc1ccc(Nc2cc(-c3ccc4[nH]ccc4c3)ncn2)cc1` [6-(1H-indol-5-yl)-N-(4-(trifluoromethoxy)phenyl)pyrimidin-4-amine], the EC50 is reported as 0.29 µM. With `FC(F)(F)Oc1ccc(Nc2ncnc3nn(Cc4ccccc4)cc23)cc1` [2-benzyl-N-(4-(trifluoromethoxy)phenyl)-2H-pyrazolo[3,4-d]pyrimidin-4-amine] the EC50 was > 10 µM. Work on `NC(=O)c1ccc(Cn2ncc3c(Nc4ccc(OC(F)(F)F)cc4)ncnc32)cc1` [4-((4-(4-(trifluoromethoxy)phenylamino)-1H-pyrazolo[3,4-d]pyrimidin-1-yl)methyl)benzamide] yielded an EC50 of 6.89 µM. Compound `FC(F)(F)Oc1ccc(Nc2cc(-c3cn[nH]c3)ncn2)cc1` [6-(1H-pyrazol-4-yl)-N-(4-(trifluoromethoxy)phenyl)pyrimidin-4-amine] has an EC50 of 0.09 µM. For `FC(F)(F)Oc1ccc(Nc2nccc(NCCN3CCOCC3)n2)cc1` [N4-(2-morpholinoethyl)-N2-(4-(trifluoromethoxy)phenyl)pyrimidine-2,4-diamine], the EC50 was > 10 µM. For `O=C(NCCN1CCOCC1)c1cccc(-c2cc(Nc3ccc(OC(F)(F)F)cc3)ncn2)c1` [N-(2-morpholinoethyl)-3-(6-(4-(trifluoromethoxy)phenylamino)pyrimidin-4-yl)benzamide], the EC50 was 0.42 µM. For `NC(=O)Cn1ncc2c(Nc3ccc(OC(F)(F)F)cc3)ncnc21` [2-(4-(4-(trifluoromethoxy)phenylamino)-1H-pyrazolo[3,4-d]pyrimidin-1-yl)acetamide], the EC50 was 0.35 µM. `FC(F)(F)Oc1ccc(Nc2ncnc3nn(C4CCCCC4)cc23)cc1` [2-cyclohexyl-N-(4-(trifluoromethoxy)phenyl)-2H-pyrazolo[3,4-d]pyrimidin-4-amine] gave an EC50 of 2.2 µM. With `Cc1nc(-c2cc(Nc3ccc(OC(F)(F)F)cc3)ncn2)cs1` [6-(2-methylthiazol-4-yl)-N-(4-(trifluoromethoxy)phenyl)pyrimidin-4-amine] the EC50 was 1.23 µM. Compound `CN1CCN(C(=O)c2cc3c(Nc4ccc(OC(F)(F)F)cc4)ncnc3s2)CC1` [(4-methylpiperazin-1-yl)(4-(4-(trifluoromethoxy)phenylamino)thieno[2,3-d]pyrimidin-6-yl)methanone] has an EC50 of 0.048 µM. For `NC(=O)c1cccc(Nc2cc(Nc3ccc(OC(F)(F)F)cc3)ncn2)c1` [3-(6-(4-(trifluoromethoxy)phenylamino)pyrimidin-4-ylamino)benzamide], the EC50 was 2.92 µM. In the case of `FC(F)(F)Oc1ccc(Nc2ncnc3c2cnn3Cc2ccccc2)cc1` [1-benzyl-N-(4-(trifluoromethoxy)phenyl)-1H-pyrazolo[3,4-d]pyrimidin-4-amine], the EC50 is reported as 0.4 µM. With `CC(C)(C)n1ncc2c(Nc3ccc(OC(F)(F)F)cc3)ncnc21` [1-tert-butyl-N-(4-(trifluoromethoxy)phenyl)-1H-pyrazolo[3,4-d]pyrimidin-4-amine] the EC50 was 0.16 µM. `FC(F)(F)Oc1ccc(Nc2cc(-c3ccncc3)ncn2)cc1` [6-(pyridin-4-yl)-N-(4-(trifluoromethoxy)phenyl)pyrimidin-4-amine] showed an EC50 of 0.47 µM. With `Cc1nn(C)c(C)c1-c1cc(Nc2ccc(OC(F)(F)F)cc2)ncn1` [N-(4-(trifluoromethoxy)phenyl)-6-(1,3,5-trimethyl-1H-pyrazol-4-yl)pyrimidin-4-amine] the EC50 was 0.15 µM. Compound `NC(=O)c1cccc(Oc2cc(Nc3ccc(OC(F)(F)F)cc3)ncn2)c1` [3-(6-(4-(trifluoromethoxy)phenylamino)pyrimidin-4-yloxy)benzamide] has an EC50 of 5 µM. In the case of `FC(F)(F)Oc1ccc(Nc2ncnc3c2cnn3C2CCCCC2)cc1` [1-cyclohexyl-N-(4-(trifluoromethoxy)phenyl)-1H-pyrazolo[3,4-d]pyrimidin-4-amine], the EC50 is reported as 0.4 µM. `FC(F)(F)c1ccc(Nc2cc(-c3ccncc3)ncn2)cc1` [6-(pyridin-4-yl)-N-(4-(trifluoromethyl)phenyl)pyrimidin-4-amine] showed an EC50 of 1.27 µM. In the case of `Fc1ccc(Nc2cc(-c3ccncc3)ncn2)cc1` [N-(4-fluorophenyl)-6-(pyridin-4-yl)pyrimidin-4-amine], the EC50 is reported as > 10 µM. In the case of `FC(F)(F)Oc1ccc(Nc2ncnc3[nH]ccc23)cc1` [N-(4-(Trifluoromethoxy)phenyl)-7H-pyrrolo[2,3-d]pyrimidin-4-amine], the EC50 is reported as > 10 µM. For `FC(F)(F)Oc1ccc(Nc2ccc(NCCN3CCOCC3)nn2)cc1` [N3-(2-morpholinoethyl)-N6-(4-(trifluoromethoxy)phenyl)pyridazine-3,6-diamine], the EC50 was > 10 µM. For `Cc1c(-c2cc(Nc3ccc(OC(F)(F)F)cc3)ncn2)cnn1-c1ccccc1` [6-(5-methyl-1-phenyl-1H-pyrazol-4-yl)-N-(4-(trifluoromethoxy)phenyl)pyrimidin-4-amine], the EC50 was 0.81 µM. For `FC(F)(F)Oc1ccc(Nc2cc(NCCN3CCOCC3)ncn2)cc1` [N4-(2-morpholinoethyl)-N6-(4-(trifluoromethoxy)phenyl)pyrimidine-4,6-diamine], the EC50 was 0.72 µM. With `Cc1nc(C)c(Cn2ncc3c(Nc4ccc(OC(F)(F)F)cc4)ncnc32)s1` [1-((2,4-dimethylthiazol-5-yl)methyl)-N-(4-(trifluoromethoxy)phenyl)-1H-pyrazolo[3,4-d]pyrimidin-4-amine] the EC50 was 6.92 µM. `FC(F)(F)c1ccc(Nc2cc(NCCN3CCOCC3)ncn2)cc1` [N4-(2-morpholinoethyl)-N6-(4-(trifluoromethyl)phenyl)pyrimidine-4,6-diamine] showed an EC50 of 0.92 µM. With `FC(F)(F)Oc1ccc(Oc2cc(NCCN3CCOCC3)ncn2)cc1` [N-(2-morpholinoethyl)-6-(4-(trifluoromethoxy)phenoxy)pyrimidin-4-amine] the EC50 was > 10 µM. In the case of `COc1ccc(Nc2cc(-c3ccncc3)ncn2)cc1` [N-(4-methoxyphenyl)-6-(pyridin-4-yl)pyrimidin-4-amine], the EC50 is reported as > 10 µM. `NC(=O)CCn1ccc2c(Nc3ccc(OC(F)(F)F)cc3)ncnc21` [3-(4-(4-(trifluoromethoxy)phenylamino)-7H-pyrrolo[2,3-d]pyrimidin-7-yl)propanamide] gave an EC50 of 0.49 µM. With `FC(F)(F)Oc1ccc(Nc2cncc(NCCN3CCOCC3)n2)cc1` [N2-(2-morpholinoethyl)-N6-(4-(trifluoromethoxy)phenyl)pyrazine-2,6-diamine] the EC50 was > 10 µM. `FC(F)(F)Oc1ccc(Nc2cc(-n3ccnc3)ncn2)cc1` [6-(1H-imidazol-1-yl)-N-(4-(trifluoromethoxy)phenyl)pyrimidin-4-amine] gave an EC50 of 1.66 µM.
